Our source for the IC50 and Ki values is ChEMBL document CHEMBL1149915, “Natural products as leads to potential drugs: an old process or the new hope for drug discovery?” (J Med Chem, 2008).

Structures are written as SMILES.

The IC50 is the concentration at which inhibition is half-maximal. The Ki is the equilibrium dissociation constant of an inhibitor or competing ligand from its target. Higher therefore signals weaker binding.

Experiment [1] in a line: Inhibition of cyclin dependent kinase.
The nature of experiment [2]: Inhibition of beta-arylsulfotransferase 4.
Experiment [3] can be described thus: Inhibition of inositol 1,4,5-triphosphate 3-kinase.
Experiment [4] deals with Cyclin-dependent kinase 1/cyclin B1 (Homo sapiens, UniProt P06493). The experiment can be described thus: Inhibition of Cdk1/cyclin B.
Experiment [5] has as its target Cyclin-dependent kinase 2 (Homo sapiens, UniProt P24941). The experiment can be described thus: Inhibition of Cdk2/cyclin A.

Chain of Cyclin-dependent kinase 1/cyclin B1 (P06493 whole entry): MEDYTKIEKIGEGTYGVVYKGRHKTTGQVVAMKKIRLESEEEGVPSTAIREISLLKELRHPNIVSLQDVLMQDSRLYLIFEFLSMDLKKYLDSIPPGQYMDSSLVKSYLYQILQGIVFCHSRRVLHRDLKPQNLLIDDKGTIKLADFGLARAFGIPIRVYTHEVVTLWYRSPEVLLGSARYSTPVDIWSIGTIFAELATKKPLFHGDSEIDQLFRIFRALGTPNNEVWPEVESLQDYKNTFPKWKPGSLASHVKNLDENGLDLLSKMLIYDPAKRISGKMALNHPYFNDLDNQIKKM
Chain of Cyclin-dependent kinase 1/cyclin B1 (P14635 whole entry, further chain): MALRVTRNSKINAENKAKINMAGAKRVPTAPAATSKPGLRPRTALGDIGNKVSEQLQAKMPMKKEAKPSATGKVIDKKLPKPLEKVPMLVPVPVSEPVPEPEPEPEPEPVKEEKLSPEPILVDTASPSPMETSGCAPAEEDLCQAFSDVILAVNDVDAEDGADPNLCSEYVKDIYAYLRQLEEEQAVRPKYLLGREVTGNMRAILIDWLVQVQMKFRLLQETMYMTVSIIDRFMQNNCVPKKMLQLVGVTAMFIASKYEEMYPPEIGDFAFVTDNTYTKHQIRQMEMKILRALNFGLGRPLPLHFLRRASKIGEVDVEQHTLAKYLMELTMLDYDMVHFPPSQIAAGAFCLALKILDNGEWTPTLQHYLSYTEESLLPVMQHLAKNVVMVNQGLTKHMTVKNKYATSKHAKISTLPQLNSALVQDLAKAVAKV

The molecule `CC[C@H](CO)Nc1nc(Nc2cccc(Cl)c2)c2ncn(C(C)C)c2n1` returned an IC50 in experiment [1] of 0.004 µM.
Turning to `Clc1nc(NCc2cccc3ccccc23)c2nc[nH]c2n1`, the affinity in experiment [2], expressed as Ki, was 0.096 µM.
Regarding `CC[C@H](CO)Nc1nc(Nc2cc(Cl)cc(C(=O)O)c2)c2ncn(C(C)C)c2n1`, the half-maximal inhibitory concentration (IC50) in experiment [1] came out at 0.004 µM.
For `O=[N+]([O-])c1ccc(CNc2nc(NCc3cccc(C(F)(F)F)c3)nc3[nH]cnc23)cc1`, the results for the half-inhibitory concentration (IC50) in experiment [3] and in experiment [4] were 10.2 µM and above 100 µM, respectively.
Molecule `OCCn1cnc2c(NCc3ccccc3)nc(NCc3ccc(Br)cc3)nc21` gave an IC50 in experiment [5] of 20 µM.
For `Cn1cnc2c(NCc3ccccc3)nc(NCCO)nc21` [OLOMOUCINE], in experiment [1], the IC50 is 1000 µM.
On the same count and under the same terms, with `CC[C@H](CO)Nc1nc(NCc2ccccc2)c2ncn(C(C)C)c2n1` [SELICICLIB] the figure was 0.45 µM.
